Measured values reported in PubChem BioAssay AID1985 (Southern Research Specialized Biocontainment Screening …, 2009).

System: S. Typhi PhoP-promoter GFP reporter, fluorescence, 4 h
Test: PhoP regulon inhibitor project modified counter assay, GFP fluorescence readout, dose response (AID 1985)

Point of comparison: `Cc1nonc1C(=O)N/N=C/c1ccc(O)cc1O`, IC50 29.7 µM. Against it:
- O=C(N/N=C/c1ccccn1)c1cccs1 — within 1.5-fold, 42.8 µM
- O=C(Nc1nnc(-c2ccco2)o1)c1cccc(Cl)c1 — within 1.5-fold, 40 µM
- COc1ccc(CNCCC(c2ccccc2)c2ccc3c(c2)OCO3)cc1 (stereo not drawn) — 5-fold higher, 149 µM
- Cc1c2ccncc2c(C)c2c1[nH]c1ccccc12 — within 1.5-fold, 32.9 µM
- CC(C)(C)CC(C)(C)c1ccc(OCCOCC[N+](C)(C)Cc2ccccc2)cc1 — within 1.5-fold, 34.9 µM
- O=C(CCC(=O)Nc1ccc(Cl)cc1Cl)N/N=C/c1ccc([N+](=O)[O-])o1 — within 1.5-fold, 33.9 µM
- CCn1cc(C(=O)O)c(=O)c2cc(F)c(N3CCN(C(=S)NC(=O)c4ccc(Br)cc4)CC3)cc21 — within 1.5-fold, 31.2 µM
- Cc1ccccc1C(=O)N/N=C/c1ccc([N+](=O)[O-])s1 — within 1.5-fold, 29 µM
- CCN1/C(=C/c2cc[n+](C)cc2)C=Cc2cc(C)ccc21 — 2.6-fold higher, 78.6 µM
- Nc1c2ccccc2nc2ccccc12 — 1.6-fold higher, 48 µM
- COc1ccc(NC2=NC3(CCCCC3)N=C(N)N2)cc1 — 4.7-fold higher, 141 µM
- Cc1ccc(Nc2c3c(nc4ccccc24)CCC3)cc1 — within 1.5-fold, 39.8 µM
- Cc1cc(NC(=O)c2ccc3[nH]c(C)c(C)c3c2)ccn1 — 4.8-fold higher, 144 µM
- O=C(CC(=O)c1c(F)cccc1Cl)c1ccccc1O — within 1.5-fold, 41.4 µM
- CCCC(=O)NC(c1ccco1)c1cc([N+](=O)[O-])c2cccnc2c1O (stereo not drawn) — 3.4-fold lower, 8.65 µM
- Cc1nc2c(=O)n(C)c(=O)nc-2n(C)n1 — 38-fold lower, 0.781 µM
- Cc1cccc(C(=O)NCCC(=O)Nc2ccc(F)c([N+](=O)[O-])c2)c1 — 4.8-fold higher, 144 µM
- CCc1cccc2c1Sc1ccccc1CC2N1CCNCC1 (stereo not drawn) — within 1.5-fold, 44.4 µM
- Cc1ccc(N/C(=C\C(=O)c2ccccc2)C(=O)O)cc1 — 1.7-fold lower, 17.3 µM
- CCCCCOc1ccc(CSC2=NCCN2)cc1[N+](=O)[O-] — 3.2-fold higher, 95.1 µM
- O=C(N/N=C/c1ccc([N+](=O)[O-])s1)c1ccccc1Br — within 1.5-fold, 27.7 µM
- CNCCCCOc1ccc(C(C)(C)C)cc1Cl — 2.1-fold higher, 61 µM
- CCN1c2ccccc2NC2N=C(OC)C(c3ccccc3)C21 (stereo not drawn) — 1.9-fold higher, 55.8 µM
- CCc1ccc2c(c1)Sc1ccccc1CC2N1CCN(C)CC1 (stereo not drawn) — 2.6-fold higher, 76.8 µM
- COc1cccc2c(=O)c(C(=O)O)c[nH]c12 — 3.6-fold higher, 106 µM
- CCN(CC)CCn1c(=N)n(CC(O)COc2cccc(C)c2)c2ccccc21 (stereo not drawn) — 2.9-fold higher, 85.2 µM
- CCN1CCCC1CNC(=O)c1cc2cc(F)ccc2[nH]1 (stereo not drawn) — 3.1-fold higher, 91 µM
- O=C(NC(=S)NNC(=O)c1cnccn1)c1ccc(F)cc1 — within 1.5-fold, 25.1 µM
- CCN1/C(=C/C=C/C=C/c2sc3ccccc3[n+]2CC)Sc2ccccc21 — within 1.5-fold, 30.9 µM
- O=C(Nc1cccc(Br)c1)c1cc2ccccc2o1 — 1.6-fold higher, 47.4 µM
- CCCCOc1ccc(Br)cc1CSC(=N)N — 1.9-fold higher, 56.5 µM
- CCCCCCCCC[n+]1cccc2c3ccccc3ccc21 — within 1.5-fold, 26.8 µM
- O=C1c2ccccc2NC(c2ccc(-c3ccc(Br)cc3)o2)N1O (stereo not drawn) — 2.7-fold higher, 81.1 µM
- OC(CNCC1CCCO1)Cn1c2ccc(Cl)cc2c2cc(Cl)ccc21 (stereo not drawn) — within 1.5-fold, 38.8 µM
- Cc1ccc(Nc2nc(N)c3ccccc3n2)cc1Cl — 2.3-fold higher, 68.5 µM
- NC(N)=N/N=C/c1ccc(OCc2ccc(Cl)cc2)cc1 — within 1.5-fold, 36.3 µM
- Cn1ncnc2c(=O)n(C)c(=O)nc1-2 — 40-fold lower, 0.741 µM
- C=CCNc1ncnc2c1[nH]c1ccc(C)cc12 — 1.9-fold higher, 56.3 µM
- O=[N+]([O-])c1ccc(O)c(/C=N/Nc2ccccn2)c1 — 2-fold lower, 15.2 µM
- NC1=NC[C@@H](Cc2ccc(O)cc2)N1CCc1cc(C(F)(F)F)cc(C(F)(F)F)c1 — 3.6-fold higher, 106 µM
- CCCCCC(=O)NC(=S)NNC(=O)CC — 2.8-fold higher, 84.2 µM
- Cc1ccc(CNCCC2=CCCCC2)cc1 — 2.8-fold higher, 81.9 µM
- O=C(O)c1cccc(N2C(=O)CSC2=S)c1 — 2.1-fold higher, 62.1 µM
- CCOC(=O)c1ccc(CNCc2ccc(Br)cc2)cc1 — 1.8-fold higher, 53.8 µM
- CC(/C=N/Nc1nc2ccccc2[nH]1)=C\c1ccccc1 — 2.4-fold higher, 71.8 µM
- COc1ccc(C(C[N+](=O)[O-])C2(c3ccc(OC)c(OC)c3)C(=O)c3ccccc3C2=O)cc1 (stereo not drawn) — 3.6-fold lower, 8.15 µM
- O=C(CSc1ccccn1)Nc1nonc1[N+](=O)[O-] — within 1.5-fold, 43.5 µM
- Nn1cnnc1N/N=C\c1ccc(-c2ccccc2[N+](=O)[O-])o1 — within 1.5-fold, 29 µM
- COc1cc(/C=C/[N+](=O)[O-])ccc1O — 1.8-fold higher, 53.4 µM
- CCOC(=O)C1Nc2c(F)cc(C)cc2C2c3ccccc3CC12 (stereo not drawn) — 4.6-fold higher, 136 µM
- CC1COc2c(N3CCN(C)CC3)c(F)cc3c(=O)c(C(=O)O)cn1c23 (stereo not drawn) — lower, < 0.23 µM
- Oc1ccccc1Nc1nc(NCc2ccco2)c2ccccc2n1 — 4.6-fold higher, 137 µM
- Cc1cc(N/N=C/c2ccc(O)cc2)c2cccc(C)c2n1 — 2.7-fold higher, 80.9 µM
- CCn1cc(C(=O)O)c(=O)c2cc(F)c(N3CCN(C(=S)NC(=O)c4ccccc4F)CC3)cc21 — 2.1-fold higher, 62.8 µM
- OC(c1cc(C(F)(F)F)nc2c(C(F)(F)F)cccc12)C1CCCCN1 (stereo not drawn) — within 1.5-fold, 37.6 µM
- CN1CCN(C2=Cc3ccccc3Sc3cc(F)ccc32)CC1 — 3.8-fold higher, 114 µM
- COc1cc(C(=O)O/N=C2\C=CC(=O)C(C)=C2)cc(OC)c1OC — 4.4-fold higher, 131 µM
